The assay concerns P388 leukemia ip, CD2F1 mice, survival T/C. As to the kind of experiment: NCI In Vivo Anticancer Drug Screen. Data for tumor model P388 Leukemia (intraperitoneal) in CD2F1 (CDF1) mice. To be noted: endpoint: median survival time, higher = longer survival. Put shortly:
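Mice carrying the transplanted tumor received test compound or vehicle. Survival was recorded in each group, and the value is the treated-group measurement divided by that of the vehicle-treated control group.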

The mark [1] stands for this setting: dose: 50.0 mg/kg/injection, schedule: Q01DX005 (ip), vehicle: saline with Tween-80.
The mark [2] stands for this setting: dose: 100.0 mg/kg/injection, schedule: Q01DX005 (ip), vehicle: saline with Tween-80.
The mark [3] stands for this setting: dose: 200.0 mg/kg/injection, schedule: Q01DX005 (ip), vehicle: saline with Tween-80.
[4] abbreviates: dose: 50.0 mg/kg/injection, schedule: Q01DX005 (ip), vehicle: Klucel (hydroxypropylcellulose) (HPC).
Where [5] appears, read: dose: 100.0 mg/kg/injection, schedule: Q01DX005 (ip), vehicle: Klucel (hydroxypropylcellulose) (HPC).
Where [6] appears, read: dose: 200.0 mg/kg/injection, schedule: Q01DX005 (ip), vehicle: Klucel (hydroxypropylcellulose) (HPC).
Where [7] appears, read: dose: 100.0 mg/kg/injection, schedule: Q01DX001 (ip), vehicle: saline with Tween-80.
The mark [8] stands for this setting: dose: 200.0 mg/kg/injection, schedule: Q01DX001 (ip), vehicle: saline with Tween-80.
Where [9] appears, read: dose: 400.0 mg/kg/injection, schedule: Q01DX001 (ip), vehicle: saline with Tween-80.
Setting [10] is: dose: 12.5 mg/kg/injection, schedule: Q01DX005 (ip), vehicle: saline with Tween-80.
[11] abbreviates: dose: 25.0 mg/kg/injection, schedule: Q01DX005 (ip), vehicle: saline with Tween-80.
Where [12] appears, read: dose: 25.0 mg/kg/injection, schedule: Q01DX009 (ip), vehicle: saline.
[13] abbreviates: dose: 50.0 mg/kg/injection, schedule: Q01DX009 (ip), vehicle: saline.
Where [14] appears, read: dose: 50.0 mg/kg/injection, schedule: Q01DX009 (ip), vehicle: saline with Tween-80.
The mark [15] stands for this setting: dose: 100.0 mg/kg/injection, schedule: Q01DX009 (ip), vehicle: saline with Tween-80.
The mark [16] stands for this setting: dose: 200.0 mg/kg/injection, schedule: Q01DX009 (ip), vehicle: saline with Tween-80.
The mark [17] stands for this setting: dose: 50.0 mg/kg/injection, schedule: Q01DX009 (ip), vehicle: Klucel (hydroxypropylcellulose) (HPC).
Where [18] appears, read: dose: 12.5 mg/kg/injection, schedule: Q01DX009 (ip), vehicle: saline.

Several values for one entry are separate records, joined by “and”; a condition that tells them apart may be missing. Equal entries are not always repeated. Toxic doses and inconclusive results are not listed.

With `CCC12OC(COc3ccccc3)CN1CCS2` (stereo not given), the T/C is 98 % of control under setting [1], 107 % of control under setting [2] and 99 % of control under setting [3].
Turning to `O=C(O)c1ccc(NC(=O)C(Cl)Cl)cc1`, the T/C reads like this: under setting [4], 97 % of control; under setting [5], 102 % of control; under setting [6], 100 % of control.
For the compound `CC(C)(C)c1cc2c3c(c1)C(C(F)(F)F)(C(F)(F)F)OS3(O)OC2(C(F)(F)F)C(F)(F)F`, the T/C runs as follows: (dose: 12.5 mg/kg/injection, schedule: Q01DX005 (ip), vehicle: suspension in saline) 103 % of control; (dose: 25.0 mg/kg/injection, schedule: Q01DX005 (ip), vehicle: suspension in saline) 108 % of control.
Regarding `CC(=O)Nc1cc2ccccc2c(Br)n1`, the T/C was 90 % of control under setting [7], 97 % of control under setting [8] and 97 % of control under setting [9].
Turning to `COC(=O)/C=C/N(Cc1ccccc1)/N=N/N(/C=C/C(=O)OC)Cc1ccccc1`, the T/C was 101 % of control (dose: 6.25 mg/kg/injection, schedule: Q01DX005 (ip), vehicle: saline with Tween-80); 95 % of control under setting [10]; 97 % of control under setting [11]; 87 % of control under setting [3].
Regarding `COC(=O)C(=O)c1c(C(=O)OC)nc2nnc(N)n2c1-c1ccc(Cl)c(Cl)c1`, the T/C was 96 % of control (dose: 60.0 mg/kg/injection, schedule: Q01DX005 (ip), vehicle: saline with Tween-80); 101 % of control (dose: 120.0 mg/kg/injection, schedule: Q01DX005 (ip), vehicle: saline with Tween-80); 104 % of control (dose: 240.0 mg/kg/injection, schedule: Q01DX005 (ip), vehicle: saline with Tween-80).
With `CCOc1c(OC)cc(-c2n[nH]c(=O)o2)cc1OC`, the T/C by setting is: (dose: 33.75 mg/kg/injection, schedule: Q01DX009 (ip), vehicle: Klucel (hydroxypropylcellulose) (HPC)) 90 % of control; (dose: 67.5 mg/kg/injection, schedule: Q01DX009 (ip), vehicle: Klucel (hydroxypropylcellulose) (HPC)) 105 % of control; (dose: 135.0 mg/kg/injection, schedule: Q01DX009 (ip), vehicle: Klucel (hydroxypropylcellulose) (HPC)) 99 % of control.
In the case of `Cc1cc2ccccc2c(N=Cc2cc(Br)cc(Br)c2O)c1C#N`, the T/C under setting [7] was 95 % of control, the T/C under setting [8] is 98 % of control and the T/C under setting [9] is 112 % of control.
For `CCOC(=O)Nc1cc2c(c(N)n1)N=C(c1ccc(Cl)cc1Cl)CN2`, the T/C runs as follows: under setting [10], 157 % of control; under setting [11], 90 % of control.
Regarding `CC(=O)Nc1cc(C)ns1`, the T/C was 101 % of control under setting [12]; 109 % of control under setting [13]; 101 % of control (dose: 100.0 mg/kg/injection, schedule: Q01DX009 (ip), vehicle: saline); 89 % of control (dose: 200.0 mg/kg/injection, schedule: Q01DX009 (ip), vehicle: saline).
`C=CS(=O)(=O)c1ccc(Nc2cc(S(=O)(=O)O)c(N)c3c2C(=O)c2ccccc2C3=O)cc1`: the T/C was 116 % of control and 120 % of control (dose: 25.0 mg/kg/injection, schedule: Q01DX009 (ip), vehicle: saline with Tween-80); 104 % of control and 115 % of control and 123 % of control under setting [14]; 107 % of control and 120 % of control and 123 % of control under setting [15]; 105 % of control and 118 % of control under setting [16].
On to `NC(=O)N/N=C1\CCCCC12CCCC2`, for which the T/C (dose: 100.0 mg/kg/injection, schedule: Q04DX002 (ip), vehicle: saline with Tween-80) was 102 % of control; the T/C (dose: 200.0 mg/kg/injection, schedule: Q04DX002 (ip), vehicle: saline with Tween-80) is 102 % of control; the T/C (dose: 400.0 mg/kg/injection, schedule: Q04DX002 (ip), vehicle: saline with Tween-80) was 100 % of control.
`Cc1ccc(N=CN(C)Sc2ccc(C(C)(C)C)cc2)c(C)c1`: the T/C is, setting by setting: under setting [17], 103 % of control; (dose: 100.0 mg/kg/injection, schedule: Q01DX009 (ip), vehicle: Klucel (hydroxypropylcellulose) (HPC)) 117 % of control.
With `C[N+](C)(C)CCOS(C)(=O)=O`, the T/C (dose: 1.56 mg/kg/injection, schedule: Q01DX009 (ip), vehicle: Klucel (hydroxypropylcellulose) (HPC)) was 90 % of control and 93 % of control; the T/C (dose: 1.56 mg/kg/injection, schedule: Q01DX009 (ip), vehicle: saline) was 101 % of control; the T/C (dose: 3.13 mg/kg/injection, schedule: Q01DX009 (ip), vehicle: Klucel (hydroxypropylcellulose) (HPC)) is 99 % of control; the T/C (dose: 3.13 mg/kg/injection, schedule: Q01DX009 (ip), vehicle: saline) is 111 % of control and 95 % of control; the T/C (dose: 6.25 mg/kg/injection, schedule: Q01DX009 (ip), vehicle: Klucel (hydroxypropylcellulose) (HPC)) was 89 % of control (2×) and 94 % of control; the T/C (dose: 6.25 mg/kg/injection, schedule: Q01DX009 (ip), vehicle: saline) is 90 % of control. Besides, the T/C under setting [18] is 92 % of control.
Turning to `CC1(C(=O)O)CCCC2(C)C3=CC(=O)OC3(OO)CCC12` (stereo not given), the T/C under setting [18] was 104 % of control, the T/C under setting [12] is 101 % of control and the T/C under setting [13] was 101 % of control.
Consider `N=c1nc2ccc3ccccc3c2nn1-c1ccc([N+](=O)[O-])cc1`, for which the T/C runs as follows: (dose: 1.5 mg/kg/injection, schedule: Q01DX009 (ip), vehicle: Klucel (hydroxypropylcellulose) (HPC)) 108 % of control; (dose: 3.0 mg/kg/injection, schedule: Q01DX009 (ip), vehicle: Klucel (hydroxypropylcellulose) (HPC)) 106 % of control; (dose: 6.0 mg/kg/injection, schedule: Q01DX009 (ip), vehicle: Klucel (hydroxypropylcellulose) (HPC)) 108 % of control; (dose: 12.5 mg/kg/injection, schedule: Q01DX009 (ip), vehicle: Klucel (hydroxypropylcellulose) (HPC)) 103 % of control; (dose: 25.0 mg/kg/injection, schedule: Q01DX009 (ip), vehicle: Klucel (hydroxypropylcellulose) (HPC)) 108 % of control; under setting [17], 119 % of control.
For `CCO/C(C)=C\C(=O)O`, the T/C reads like this: under setting [1], 98 % of control; under setting [2], 97 % of control; under setting [3], 97 % of control.
Regarding `CCCCC1CC=CC(NC#N)=N1` (stereo not given), the T/C was 100 % of control under setting [14], 104 % of control under setting [15] and 115 % of control under setting [16].
On the same counts, the results for `CC(=C1N=c2ccccc2=N1)c1[nH]c(O)c2ccccc12` are 95 % of control, 90 % of control and 96 % of control.
Regarding `C/C=C/C(C)C1OC1(C)C(O)C1COC(=O)C(O)C(OC)C(C)C(=O)C(C)C(O)/C(C)=C/C(C)C(=O)CC(O)C(C)C1=O` (stereo not given), the T/C (dose: 0.39 micrograms/kg/injection, schedule: Q01DX005 (ip), vehicle: saline) is 106 % of control; the T/C (dose: 0.78 micrograms/kg/injection, schedule: Q01DX005 (ip), vehicle: saline) is 119 % of control; the T/C (dose: 1.56 micrograms/kg/injection, schedule: Q01DX005 (ip), vehicle: saline) is 123 % of control; the T/C (dose: 3.12 micrograms/kg/injection, schedule: Q01DX005 (ip), vehicle: saline) was 119 % of control; the T/C (dose: 6.25 micrograms/kg/injection, schedule: Q01DX005 (ip), vehicle: saline) is 113 % of control and 123 % of control.
For the compound `O=C(O)c1ccccc1.O=C(O)c1ccccc1.O=C(O)c1ccccc1.O=C(O)c1ccccc1.[Cu].[Cu]`, the T/C was 99 % of control (dose: 7.5 mg/kg/injection, schedule: Q01DX005 (ip), vehicle: Klucel (hydroxypropylcellulose) (HPC)) and 97 % of control (dose: 15.0 mg/kg/injection, schedule: Q01DX005 (ip), vehicle: Klucel (hydroxypropylcellulose) (HPC)).
Turning to `O=[N+]([O-])c1cccc(C(Nc2nncs2)Nc2nncs2)c1`, the T/C reads like this: under setting [4], 106 % of control and 96 % of control; under setting [5], 95 % of control; under setting [6], 94 % of control; (dose: 400.0 mg/kg/injection, schedule: Q01DX005 (ip), vehicle: Klucel (hydroxypropylcellulose) (HPC)) 96 % of control.

The values above are taken from PubChem BioAssay AID330 (DTP/NCI, 2004).
